Counter-ions that a name gives are not always drawn.
Key:
honeybees = assay: Test for Confirmation of Honeybee Repelling Effect 1, 2, 3 (feeding station with 40% sugar water); format: in vivo; conditions: for Corrected repelling rate (%) Honeybees: Test 3, 5 mL
Text: The following were used as the test samples for Examples: 2% by weight per volume ethanol solutions of octane (a-1), tetradecane (a-2), heptadecane (a-3), nonadecane (a-4), 2-acetylfuran (b-1), 5-methyl-2-furaldehyde (b-2), furfural (b-3), furaneol (c-1), 2-acetylpyrrole (d-1), 1-benzylpyrrole (d-2), 1-octanol (e-1), 1-dodecanol (e-2), and 1-octadecanol (e-3), respectively; and 2% by weight per volume aqueous solutions of furfuryl alcohol (b-4), sotolon (c-2), and α-angelicalactone (c-3), respectively.
The following were used as the test samples for Comparative Examples: 2% by weight per volume ethanol solutions of eicosane (carbon number 20, p-1), heneicosane (carbon number 21, p-2), 2-methyloctane (branched alkane, p-3), tributyl o-acetylcitrate (p-4), and 1-methylpyrrole (p-5), respectively; and 2% by weight per volume aqueous solutions of 2-methyltetrahydrofuran-3-one (p-6) and acetic acid (p-7), respectively.
Ethanol alone and water alone were used as samples for correction.
The cotton pads 13 were impregnated with 40% sugar water (80 g), after which disposable wooden chopsticks 15 (80 mm in length) were placed over the cotton pads on the lid surface as “landing areas,” for use as “test insect (honeybee) feeding station 1” 10.
A nest box of test insects (honeybees) (1 colony: approx. 6,000 bees) was placed at the center of a glass hothouse (bottom face: 5 m×10 m, height (highest part): 3 m, temperature: 25° C.), and the aforementioned “test insect (honeybee) feeding station 1” was installed at a location 2 meters away from the nest box.
After confirming that at least five test insects (honeybees) were feeding at the above “test insect (honeybee) feeding station 1” installed in the hothouse, test 1 was conducted to measure the “approaching count (Mz)” and “landing count (My)” and calculate the “landing rate (Mx).”
Next, the “test insect (honeybee) feeding station 1” installed in the hothouse was replaced with each “test insect (honeybee) feeding station 2” which was let to stand still for 5 minutes, after which test 2 was conducted to measure the “approaching count (Nz)” and “landing count (Ny)” and calculate the “landing rate (Nx).”
Approaching count: Total number of times a honeybee has approached within 25 cm of the cotton wools at the feeding station during 5 minutes
Landing count: Total number of honeybees that have remained for at least 1 second on the cotton pads at the feeding station during 5 minutes
Landing rate (%): (Landing count/Approaching count)×100
The “repelling rate Q” and “corrected repelling rate R” were calculated from the above “landing rates” using the calculation formula below. For the “repelling rate of sample for correction” used to calculate the “corrected repelling rate R,” the repelling rate of each of the samples for correction above (ethanol alone or water alone being a solvent for the active ingredient) was used.
Repelling rate Q (%)={(Mx)−(Nx)}/(Mx)×100
Corrected repelling rate R (%)={Repelling rate of test sample−Repelling rate of sample for correction}/{100−Repelling rate of sample for correction}×100
The following were used as the test samples for Examples: 0.1% by weight per volume ethanol solutions of 3-methyl-2-butanol (e-4), carvacrol (x-1), isoeugenol (x-2), cinnamyl alcohol (x-3), diacetone alcohol (x-4), α-amylcinnamaldehyde (x-5), 3-methyl-2-butenal (x-6), valeraldehyde (x-7), ethyl cinnamate (x-8), methyl cinnamate (x-9), ethyl isovalerate (x-10), isoamyl formate (x-11), 5-ethyl-2-methylpyridine (x-12), 2-(3-phenylpropyl)pyridine (x-13), 2,6-dimethylpyridine (x-14), ß-ionone (x-15), 2-acetylthiazole (x-16), butylamine (x-17), and citronella oil (x-18), respectively; and a 0.1% by weight per volume aqueous solution of (3-amino-3-carboxypropyl)dimethylsulfonium chloride (x-19).

stink bugs = assay: Test for Confirmation of Stink Bug Behaviors against Active Ingredients 1, 2, 3 (treated filter paper); format: in vivo, southern green stink bugs
Text: The test samples in “Test for Confirmation of Honeybee Repelling Effect 1” above were used.
A liquid calcium carbonate/ethanol dispersion was applied on the entire interior wall of a KP cup (100 mm in diameter×90 mm in height) and air-dried, after which a filter paper (90 mm in diameter) was fixed on the bottom face of the KP cup using double-sided tape. A different filter paper (90 mm in diameter) was cut along its diameter and the resulting semicircle-shaped paper was uniformly treated with 400 μL of each test sample or sample for correction, and then placed over the filter paper fixed on the aforementioned bottom face of the KP cup by allowing the circular parts to overlap, for use as a testing device.
The “repelling rate Y” and “corrected repelling rate Z” were calculated from the above “time A (sec)” and “time B (sec)” using the calculation formula below. For the “repelling rate of sample for correction” used to calculate the “corrected repelling rate Z,” the repelling rate of each of the samples for correction above (ethanol alone or water alone being a solvent for the active ingredient) was used.
Corrected repelling rate Z (%)={Repelling rate of test sample−Repelling rate of sample for correction}/{100−Repelling rate of sample for correction}×100
For the test samples, the test samples in “Test for Confirmation of Honeybee Repelling Effect 2” above were used.

[1] = 0.1% by weight per volume solution
[2] = Test 3, 0.1% by weight per volume solution, 400 μL
[3] = Test 2, honeybees, 0.1% by weight per volume solution, 5 mL (active ingredient 5 mg)
[4] = Test 2, 0.1% by weight per volume solution, 400 μL

SMILES | Corrected repelling rate (%) Honeybees (honeybees; [1]) [%] | repelling of stink bugs and other injurious insects to be exterminated (in words) (stink bugs) | Corrected repelling rate (%) Stinkbugs (stink bugs; [2]) | also measured
CC(C)=CCC/C(C)=C/COC=O [y-28, geranyl formate] | 98.0 | not repelling stink bugs | ∘ | 
C[S+](C)CCC(N)C(=O)O.[Cl-] (stereo not drawn) [x-19, (3-amino-3-carboxypropyl)dimethylsulfonium chloride] |  |  |  | Corrected repelling rate R (%) (honeybees; [3]): 40.9%; Corrected repelling rate (%) Stinkbugs (stink bugs; [4]): <0%
CC(C)C(C)O (stereo not drawn) [e-4, 3-methyl-2-butanol] |  |  |  | Corrected repelling rate R (%) (honeybees; [3]): 17.7%; Corrected repelling rate (%) Stinkbugs (stink bugs; [4]): <0%
COc1cc(OC)cc(C(=O)O)c1 [y-76, 3,5-dimethoxybenzoic acid] | 22.1 |  | ∘ | 
CC(C)=CCO [e-8, 3-methyl-2-buten-1-ol] | 30.4 |  | ∘ | 
CC(=O)OCCc1ccccc1 [y-20, phenethyl acetate] | 58.9 | not repelling stink bugs | ∘ | 
CCCCCCCCCCCC(=O)OCC [y-41, ethyl laurate] | 59.6 | not repelling stink bugs | ∘ | 
Cc1ccc(C(C)C)cc1O [x-1, carvacrol] |  |  |  | Corrected repelling rate R (%) (honeybees; [3]): 80.6%; Corrected repelling rate (%) Stinkbugs (stink bugs; [4]): <0%
c1cnccn1 [y-57, pyrazine] | 51.3 | not repelling stink bugs | ∘ | 
CC/C=C/C=O [y-10, trans-2-pentenal] | 55.4 | not repelling stink bugs | ∘ | 
CCCCCCCC1CCCC(=O)O1 (stereo not drawn) [y-65, δ-dodecalactone] | 86.6 | not repelling stink bugs | ∘ | 
CCc1occc(=O)c1O [y-95, ethyl maltol] | 27.6 |  | ∘ | 
c1ccc(-c2nc3ccccc3nc2-c2ccccc2)cc1 [y-84, 2,3-diphenylquinoxaline] | 75.8 | not repelling stink bugs | ∘ | 
CC1(C)C2CCC1(C)C(O)C2 (stereo not drawn) [y-1, borneol] | 80.0 | not repelling stink bugs | ∘ | 
COc1cc(C=O)ccc1O [y-7, vanillin] | 61.2 | not repelling stink bugs | ∘ | 
CCCCCO [e-7, 1-pentanol] | 68.9 | not repelling stink bugs | ∘ | 

SMILES | Corrected repelling rate (%) Honeybees (honeybees; [1]) [%] | repelling of stink bugs and other injurious insects to be exterminated (in words) (stink bugs) | Corrected repelling rate (%) Stinkbugs (stink bugs; [2]) | also measured
CCCCN [x-17, butylamine] |  |  |  | Corrected repelling rate R (%) (honeybees; [3]): 83.4%; Corrected repelling rate (%) Stinkbugs (stink bugs; [4]): <0%
CC(=O)c1ccco1 [b-1, 2-acetylfuran] |  |  |  | Corrected repelling rate R (%) (honeybees; Test 1, honeybees, 2% by weight per volume solution, 5 mL sprayed (active ingredient 0.1 g)): 60.3%; Corrected repelling rate (%) Stinkbugs (stink bugs; Test 1, 2% by weight per volume solution, 400 μL on filter paper, 30 minutes): <0%
CC(=O)OC/C=C(\C)CCC=C(C)C [y-27, geranyl acetate] | 68.0 | not repelling stink bugs | ∘ | 
O=CC=Cc1ccccc1 [y-5, cinnamaldehyde] | 94.4 | not repelling stink bugs | ∘ | honeybee repelling rate (honeybees; Test 3, summary in text): ≥ 50%
CCCCC(CC)COC(=O)c1ccccc1O (stereo not drawn) [y-22, 2-ethylhexyl salicylate] | 23.7 |  | ∘ | 
CCOC(=O)CC(C)(C)C [y-42, ethyl tert-butylacetate] | 27.7 |  | ∘ | 
OCc1ccco1 [b-4, furfuryl alcohol] |  |  |  | Corrected repelling rate R (%) (honeybees; 2 % strength): 94.8%; Corrected repelling rate (%) Stinkbugs (stink bugs; 0.5 h, 2 % strength): <0%
C=CCOC(=O)Cc1ccccc1 [y-44, allyl phenylacetate] | 73.6 | not repelling stink bugs | ∘ | 
CCCCOC(C)=O [y-46, butyl acetate] | 40.2 |  |  | Corrected repelling rate (%) Stinkbugs (stink bugs; 0.5 h, 0.1 % strength): x (“x” for rates “not <0”)
CCCCCC1CCCCC(=O)O1 (stereo not drawn) [y-66, 6-undecanolactone] | 69.3 | not repelling stink bugs | ∘ | 
CCOC(=O)CC(C)C [x-10, ethyl isovalerate] |  |  |  | Corrected repelling rate R (%) (honeybees; [3]): 61.0%; Corrected repelling rate (%) Stinkbugs (stink bugs; [4]): <0%
COc1ccc(C(=O)O)cc1OC [y-75, 3,4-dimethoxybenzoic acid] | 70.6 | not repelling stink bugs | ∘ | 
CCc1ccc(C)nc1 [x-12, 5-ethyl-2-methylpyridine] |  |  |  | Corrected repelling rate R (%) (honeybees; [3]): 72.4%; Corrected repelling rate (%) Stinkbugs (stink bugs; [4]): <0%
CCCC(=O)O [y-73, butyric acid] | 33.0 |  | ∘ | 
COC(=O)c1ccccc1N [y-33, methyl anthranilate] | 51.0 | not repelling stink bugs | ∘ | 
c1ccc(CCCc2ccccn2)cc1 [x-13, 2-(3-phenylpropyl)pyridine] |  |  |  | Corrected repelling rate R (%) (honeybees; [3]): 86.4%; Corrected repelling rate (%) Stinkbugs (stink bugs; [4]): <0%
